Consider nine compounds from patent US20250263424A1, “KRAS INHIBITORS” (Bristol-Myers Squibb Company, priority 2022, published 2025).

The first experiment concerns the target Recombinant GMPPNP-loaded KRAS G12C (KRAS-G12C(ON), active form) (Homo sapiens, UniProt P01116, G12C). The experiment in a line: KRAS G12C RAF Disruption Assay (HTRF). The experiment is classed as biochemical. The note with it: GMPPNP-loaded KRAS G12C 5 nM, GST-RAF1 RBD 9 nM, values given in μM, read-out: KRASG12C RAF Disruption Assay (IC50). In short, it runs like this:
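GMPPNP-loaded KRAS G12C (5 nM) preincubated with compound 20 min at room temperature in Tris pH 7.5 buffer with MgCl2, DTT and BSA. GST-RAF1 RBD (9 nM) then added for 20 min, and SA-Tb (0.25 nM) for 3 h. HTRF 520/495 ratio read; IC50 taken from the dose-response curve.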
On the technique in general: In TR-FRET formats the signal depends on donor and acceptor labels being close together.
Usually IC50 stands for the concentration at which inhibition is half-maximal. For “(Z)-1-(3-((7M)-7-(6-amino-4-methyl-3-(trifluoromethyl)pyridin-2-yl)-6-chloro-8-fluoro-2-(((2R,7aR)-2-fluorotetrahydro-1H-pyrrolizin-7a(5H)-yl)methoxy)quinazolin-4-yl)-3,9-diazabicyclo[3.3.1]nonan-9-yl)-2-fluoro-3-(thiazol-2-yl)prop-2-en-1-one [Example 14]”, the IC50 amounted to 2.1 µM.

Staying with this experiment, now noted: GMPPNP-loaded KRAS G12C 5 nM, GST-RAF1 RBD 9 nM, values in nM, read-out: KRASG12C RAF Disruption Assay (IC50).
Consider `C#Cc1cccc2cccc(-c3ccc4c(N(C)[C@@H]5CCN(C(=O)/C(F)=C/c6nccs6)C5)nc(OC[C@@]56CCCN5C[C@H](F)C6)nc4c3F)c12` [Example 82, (Z)-1-((R)-3-((7-(8-ethynylnaphthalen-1-yl)-8-fluoro-2-(((2R,7aS)-2-fluorotetrahydro-1H-pyrrolizin-7a(5H)-yl)methoxy)quinazolin-4-yl)(methyl)amino)pyrrolidin-1-yl)-2-fluoro-3-(thiazol-2-yl)prop-2-en-1-one], for which the IC50 was found to be 0.04 µM.
As for `Cc1cc2[nH]ncc2c(-c2ccc3c(N(C)[C@@H]4CCN(C(=O)/C(F)=C/c5ccccn5)C4)nc(OC[C@@]45CCCN4C[C@H](F)C5)nc3c2F)c1Cl` [Example 83, (Z)-1-((3R)-3-((7-(5-chloro-6-methyl-1H-indazol-4-yl)-8-fluoro-2-(((2R,7aS)-2-fluorotetrahydro-1H-pyrrolizin-7a(5H)-yl)methoxy)quinazolin-4-yl)(methyl)amino)pyrrolidin-1-yl)-2-fluoro-3-(pyridin-2-yl)prop-2-en-1-one], the IC50 turned out to be 0.022 µM.
Turning to `Cc1cc2[nH]ncc2c(-c2ccc3c(N(C)[C@@H]4CCN(C(=O)/C(F)=C/c5nccs5)C4)nc(OC[C@@]45CCCN4C[C@H](F)C5)nc3c2F)c1Cl` [Example 84, (Z)-1-((3R)-3-((7-(5-chloro-6-methyl-1H-indazol-4-yl)-8-fluoro-2-(((2R,7aS)-2-fluorotetrahydro-1H-pyrrolizin-7a(5H)-yl)methoxy)quinazolin-4-yl)(methyl)amino)pyrrolidin-1-yl)-2-fluoro-3-(thiazol-2-yl)prop-2-en-1-one], the IC50 is 0.098 µM.
With `C#Cc1cccc2cccc(-c3ccc4c(N5CCN(C(=O)/C(F)=C/c6ccccn6)[C@@H](CC#N)C5)nc(OC[C@@]56CCCN5C[C@H](F)C6)nc4c3F)c12` [Example 85, 2-((S)-4-(7-(8-ethynylnaphthalen-1-yl)-8-fluoro-2-(((2R,7aS)-2-fluorotetrahydro-1H-pyrrolizin-7a(5H)-yl)methoxy)quinazolin-4-yl)-1-((Z)-2-fluoro-3-(pyridin-2-yl)acryloyl)piperazin-2-yl)acetonitrile], the IC50 is 0.025 µM.
For the compound `C#Cc1cccc2cccc(-c3ccc4c(N5CCN(C(=O)/C(F)=C/c6nccs6)[C@@H](CC#N)C5)nc(OC[C@@]56CCCN5C[C@H](F)C6)nc4c3F)c12` [Example 86, 2-((S)-4-(7-(8-ethynylnaphthalen-1-yl)-8-fluoro-2-(((2R,7aS)-2-fluorotetrahydro-1H-pyrrolizin-7a(5H)-yl)methoxy)quinazolin-4-yl)-1-((Z)-2-fluoro-3-(thiazol-2-yl)acryloyl)piperazin-2-yl)acetonitrile], the IC50 worked out at 0.044 µM.
As for `C#Cc1cccc2cccc(-c3ccc4c(N5CCN(C(=O)/C(F)=C/c6cnccn6)[C@@H](CC#N)C5)nc(OC[C@@]56CCCN5C[C@H](F)C6)nc4c3F)c12` [Example 87, 2-((S)-4-(7-(8-ethynylnaphthalen-1-yl)-8-fluoro-2-(((2R,7aS)-2-fluorotetrahydro-1H-pyrrolizin-7a(5H)-yl)methoxy)quinazolin-4-yl)-1-((Z)-2-fluoro-3-(pyrazin-2-yl)acryloyl)piperazin-2-yl)acetonitrile], the IC50 was 0.042 µM.
Turning to `C#Cc1cccc2cccc(-c3ccc4c(N5CCN(C(=O)/C(F)=C/c6ccccn6)C[C@@H]5C)nc(OC[C@@]56CCCN5C[C@H](F)C6)nc4c3F)c12` [Example 88, (Z)-1-((S)-4-(7-(8-ethynylnaphthalen-1-yl)-8-fluoro-2-(((2R,7aS)-2-fluorotetrahydro-1H-pyrrolizin-7a(5H)-yl)methoxy)quinazolin-4-yl)-3-methylpiperazin-1-yl)-2-fluoro-3-(pyridin-2-yl)prop-2-en-1-one], the IC50 was 0.043 µM.
On to `C#Cc1cccc2cccc(-c3ccc4c(N5CCN(C(=O)/C(F)=C/c6nccs6)C[C@@H]5C)nc(OC[C@@]56CCCN5C[C@H](F)C6)nc4c3F)c12` [Example 89, (Z)-1-((S)-4-(7-(8-ethynylnaphthalen-1-yl)-8-fluoro-2-(((2R,7aS)-2-fluorotetrahydro-1H-pyrrolizin-7a(5H)-yl)methoxy)quinazolin-4-yl)-3-methylpiperazin-1-yl)-2-fluoro-3-(thiazol-2-yl)prop-2-en-1-one], for which the IC50 worked out at 0.38 µM.
